Source: paper PMC4922569, “Antifibrotic Effects of the Dual CCR2/CCR5 Antagonist Cenicriviroc in Animal Models of Liver and Kidney Fibrosis” (PLoS ONE, 2016)
Where a name gives a salt, the structure may show the parent alone.

Assays:
[1] = tested on: monocyte/macrophage recruitment; assay: Thioglycollate (TG)-induced mouse model of peritonitis: peritoneal lavage monocyte/macrophage counts; format: in vivo; conditions: for Decrease in peritoneal lavage monocyte/macrophage counts compared to vehicle control: 48 h post-TG
Method: A murine thioglycollate (TG)-induced model of peritonitis, where acute inflammation induced by intraperitoneal (IP) injection of TG results in a rapid increase in monocyte/macrophage migration into the peritoneal cavity, was employed to assess the effects of CVC on cell recruitment in vivo. The protocol was approved by the IACUC of Charles River Laboratories Preclinical Services, Montreal (PCS-MTL). The care and use of animals was conducted in accordance with the guidelines of the US National Research Council and the Canadian Council on Animal Care.
(§1) Male C57BL/6 mice (n = 44; 8–10 weeks of age; Charles River Laboratories, Canada) were allocated to receive treatments via oral gavage (PO) on Days 1–5 in the following groups: non-disease control, vehicle control twice daily (BID), CVC 5 mg/kg/day (CVC5) BID, CVC 20 mg/kg/day (CVC20) BID, CVC 100 mg/kg/day (CVC100) BID, CVC20 QD, and positive control dexamethasone (corticosteroid known to reduce inflammation in a variety of animal models) 1 mg/kg QD (S1 Table). On Day 4, peritonitis was induced via IP injection of TG 3.85% (1 mL/animal) 2 hours post-dose in all groups except non-disease controls. Study endpoints included: peritoneal lavage cell counts and pharmacokinetic (PK) evaluation. Animals were sacrificed 48 hours post-TG injection by isoflurane inhalation, and peritoneal lavage and blood samples (0.7 mL) were collected. Differential cell counts were assessed in peritoneal lavage samples using an Advia® Hematology System (Siemens Healthcare Diagnostics, USA) with multispecies software and an analysis software designed for mouse peritoneal fluid on Advia® 120 (LabThruPut, USA). A 0.3 mL aliquot of the blood sample was processed to plasma for PK analysis.
In the peritonitis mouse model, one-way analysis of variance with post-hoc Dunnett’s test was performed, using GraphPad Prism® (GraphPad Software, Inc., USA), on differential cell counts obtained from lavage in treatment groups versus the vehicle-control group. For the ex vivo migration of mouse monocytes, statistical significance was determined by a Student’s t test.

[2] = CVC plasma levels in the TG-induced model of peritonitis (LC/MS/MS); format: in vivo; conditions: male, C57BL/6, mouse, oral, 20 mg/kg/day, CVC20 QD, n = 5, 26 hours post-dose, read-out: CVC trough plasma level
Method: as §1
CVC plasma levels (minimum and maximum) were determined by KCAS Bioanalytical Services, USA, using a validated liquid chromatography-tandem mass spectrometry (LC/MS/MS) plasma method (50 μL assay, range 10.0−1920.0 ng/mL).

CCR2 on monocytes = tested on: CCR2 on monocytes; set-up: method as in earlier work; conditions: at 6 nmol/L; human PBMC ex vivo; cited from earlier work
[3] = tested on: CCR5 on CD4+ and CD8+ T-cells; set-up: method as in earlier work; conditions: human PBMC ex vivo, cited from earlier work
[4] = set-up: method as in PMID 21317794, PMID 21486960, PMID 16251299; conditions: in humans; cited from earlier work
[5] = tested on: CCl4-induced liver injury; conditions: cited from earlier work
MCD-induced NASH = conditions: cited from earlier work

In the case of `CCCCOCCOc1ccc(-c2ccc3c(c2)/C=C(/C(=O)Nc2ccc([S@@+]([O-])Cc4cncn4CCC)cc2)CCCN3CC(C)C)cc1` [CVC, cenicriviroc mesylate], the “Decrease in peritoneal lavage monocyte/macrophage counts compared to vehicle control” value ([1]; CVC5 (5 mg/kg/day) BID PO Days 1-5) is reported as 5.7%, the “Decrease in peritoneal lavage monocyte/macrophage counts compared to vehicle control” value ([1]; CVC20 (20 mg/kg/day) BID PO Days 1-5) is reported as 45.2% and the “Decrease in peritoneal lavage monocyte/macrophage counts compared to vehicle control” value ([1]; CVC20 (20 mg/kg/day) QD PO Days 1-5) is reported as 26.0%. The “Decrease in peritoneal lavage monocyte/macrophage counts compared to vehicle control” value ([1]; CVC100 (100 mg/kg/day) BID PO Days 1-5) was 76.5%, the “Greater reduction in monocyte/macrophage count compared to dexamethasone” value ([1]; CVC100 BID vs dexamethasone 1 mg/kg QD, p < 0.001) was 62.1% and the “Doses achieving statistically significant decrease in monocyte/macrophage recruitment” value ([1]; p < 0.05 vs vehicle control) was at least 20 mg/kg/day. For the same molecule, the concentration at 26 h [2] was 25.7 ± 8.1 ng/mL, the “Receptor occupancy for CCR2 on monocytes” value (CCR2 on monocytes) was ~ 98% and the “Receptor occupancy for CCR5 on CD8+ T-cells” value ([3]; at 2.3 nmol/L) was at least 90%. For the same molecule, the “Receptor occupancy for CCR5 on CD4+ T-cells” value ([3]; at 3.1 nmol/L) was at least 90%, the Plasma half-life [4] was 30 to 40 h and the “Infiltration of Ly6Chi monocyte-derived macrophages into the liver” value ([5]; CCl4 model, preliminary data) was “significantly decreased”. For the same molecule, the Necrotic area ([5]; acute CCl4 model) was “significant reduction”, the “Infiltration of Ly6Chi monocyte-derived macrophages into the liver” value (MCD-induced NASH; MCD model, preliminary data) was “significantly decreased” and the “Hepatic fibrosis (Sirius red staining and hydroxyproline content)” value (MCD-induced NASH; chronic MCD model of NASH) was “reduced”. For the same molecule, the “Steatohepatitis, assessed by histological NAFLD activity score” value (MCD-induced NASH; chronic MCD model of NASH) was “significantly ameliorated”.
